pIC50, pKi: −log10 of the molar value.
The compounds below were run against T1, Dopamine beta-hydroxylase (Bos taurus) (UniProt P15101) (assay: Compound was evaluated for the inhibition of Dopamine beta hydroxylase at a concentration of 10e-4 M.).
T1 sequence (whole entry): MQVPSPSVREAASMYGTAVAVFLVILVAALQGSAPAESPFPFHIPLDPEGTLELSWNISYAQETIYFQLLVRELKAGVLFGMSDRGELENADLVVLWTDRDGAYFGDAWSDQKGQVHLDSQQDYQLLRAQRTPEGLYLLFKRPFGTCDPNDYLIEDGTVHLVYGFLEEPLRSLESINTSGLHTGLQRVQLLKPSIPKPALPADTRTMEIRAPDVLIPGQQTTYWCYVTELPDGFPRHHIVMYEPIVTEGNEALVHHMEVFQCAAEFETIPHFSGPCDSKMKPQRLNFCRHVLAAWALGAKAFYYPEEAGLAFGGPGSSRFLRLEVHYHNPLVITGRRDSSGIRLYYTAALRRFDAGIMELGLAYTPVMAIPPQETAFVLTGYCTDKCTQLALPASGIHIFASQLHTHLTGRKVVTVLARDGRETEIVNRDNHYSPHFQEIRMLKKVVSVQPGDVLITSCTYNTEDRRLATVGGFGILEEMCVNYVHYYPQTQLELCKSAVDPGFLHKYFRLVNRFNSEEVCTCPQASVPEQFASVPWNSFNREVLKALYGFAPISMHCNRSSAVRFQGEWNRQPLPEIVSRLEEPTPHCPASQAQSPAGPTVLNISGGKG

inhibition [%]	Compound
30	Oc1ccc(CCCCCn2ccnc2S)cc1

Each compound was assayed against T2, Dopamine beta-hydroxylase (Bos taurus, UniProt P15101) (assay: Inhibition of Dopamine beta hydroxylase.).
T2 sequence (P15101 whole entry): T1 sequence (whole entry)

pIC50	Compound
4.17	COc1ccc(CCn2ccnc2S)cc1
3.96	COc1ccc(CCCCCn2cc[nH]c2=S)cc1
3.69	COc1ccc(Cn2cc[nH]c2=S)cc1
5.66	Oc1ccc(CCCn2cc[nH]c2=S)cc1
3.49	CC(CCc1ccccc1)n1ccnc1S (configuration not stated)
3.74	COc1ccc(CCCn2cc[nH]c2=S)cc1
4.06	S=c1[nH]ccn1CCOc1ccccc1
3.96	Sc1nccn1-c1ccccc1
4.49	S=c1[nH]ccn1Cc1ccccc1
4.54	CC(Cc1ccccc1)Cn1cc[nH]c1=S (configuration not stated)
3.12	Cn1cc[nH]c1=S [METHIMAZOLE]
3.43	Oc1ccc(-n2ccnc2S)cc1
4.80	Sc1nccn1CCCc1ccccc1
4.64	Oc1ccc(CCn2cc[nH]c2=S)cc1
4.74	CC(CCn1cc[nH]c1=S)c1ccccc1 (configuration not stated)
5.59	Oc1ccc(Cn2cc[nH]c2=S)cc1
3.82	COc1ccc(CCCCn2cc[nH]c2=S)cc1
3.99	S=c1[nH]ccn1CCSc1ccccc1

What follows are compounds tested against T2, Dopamine beta-hydroxylase (assay: Compound was evaluated for the inhibition of Dopamine beta hydroxylase at pH 4.5).

pKi	Compound
4.35	Cn1cc[nH]c1=S [METHIMAZOLE]

What follows are compounds tested against T2, Dopamine beta-hydroxylase (assay: Compound was evaluated for the inhibition of Dopamine beta hydroxylase at pH 6.6).

pKi	Compound
3.15	Cn1cc[nH]c1=S [METHIMAZOLE]

Each compound was assayed against T1, Dopamine beta-hydroxylase (Bos taurus) (assay: Inhibition of Dopamine beta hydroxylase at a concentration of 10e-4 M.).

inhibition [%]	Compound
5	OC(Cc1ccccc1)Cn1ccnc1S (configuration not stated)
0	NCC(c1ccccc1)n1ccnc1S (configuration not stated)
5	O=S(=O)(CCn1ccnc1S)c1ccccc1
12	Oc1ccc(CCCCn2ccnc2S)cc1
4	NC(=O)C(c1ccccc1)n1ccnc1S (configuration not stated)
25	COc1ccc(-n2ccnc2S)cc1

— ChEMBL document CHEMBL1123383, “Multisubstrate inhibitors of dopamine beta-hydroxylase. 1. Some 1-phenyl and 1-phenyl-bridged derivatives of imidazole-2-thione” (J Med Chem, 1986)
